40 molecules from ChEMBL document CHEMBL1201862, “PubChem BioAssay data set” (2004) can be followed below.

Common to all, as to assay type: functional
Assay [1] deals with T1, Corticotropin-releasing factor receptor 2/Corticotropin-releasing factor-binding protein (Homo sapiens, UniProt P24387+Q13324).
T1 sequence (Q13324 whole entry): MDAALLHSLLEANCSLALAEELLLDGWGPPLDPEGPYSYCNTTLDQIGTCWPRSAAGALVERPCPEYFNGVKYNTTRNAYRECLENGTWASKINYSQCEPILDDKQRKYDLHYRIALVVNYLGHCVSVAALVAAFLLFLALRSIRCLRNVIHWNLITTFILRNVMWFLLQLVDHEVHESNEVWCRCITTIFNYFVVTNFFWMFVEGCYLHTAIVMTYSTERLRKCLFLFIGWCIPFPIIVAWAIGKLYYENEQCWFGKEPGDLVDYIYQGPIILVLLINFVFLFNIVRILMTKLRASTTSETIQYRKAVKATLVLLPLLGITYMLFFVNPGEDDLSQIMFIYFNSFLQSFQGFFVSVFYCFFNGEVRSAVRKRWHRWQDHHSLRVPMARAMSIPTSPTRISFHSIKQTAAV
T1 sequence (P24387 whole entry): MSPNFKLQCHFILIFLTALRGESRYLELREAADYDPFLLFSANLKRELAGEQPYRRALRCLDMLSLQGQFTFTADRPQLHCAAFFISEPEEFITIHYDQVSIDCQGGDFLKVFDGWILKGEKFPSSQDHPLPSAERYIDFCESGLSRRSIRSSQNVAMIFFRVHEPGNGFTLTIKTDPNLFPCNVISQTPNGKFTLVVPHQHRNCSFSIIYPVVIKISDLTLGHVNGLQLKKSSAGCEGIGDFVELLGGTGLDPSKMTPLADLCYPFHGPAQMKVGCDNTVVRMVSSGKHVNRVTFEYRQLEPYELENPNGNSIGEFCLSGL
The assay is described as follows: activators of CRF receptor 2 with binding protein – uHTS hits, confirmation (AID 602473). The following applies: read-out: EC50_Mean.

Assay [2] has as its target T1, Corticotropin-releasing factor receptor 2/Corticotropin-releasing factor-binding protein. The assay is described as follows: Dose Response confirmation of uHTS hits for small molecule antagonists of the CRF-binding protein and CRF-R2 receptor complex. The following applies: read-out: IC50_Mean.
In another assay the target is T2, Protein RecA (Mycobacterium tuberculosis, UniProt P9WHJ3).
T2 sequence (P9WHJ3 whole entry): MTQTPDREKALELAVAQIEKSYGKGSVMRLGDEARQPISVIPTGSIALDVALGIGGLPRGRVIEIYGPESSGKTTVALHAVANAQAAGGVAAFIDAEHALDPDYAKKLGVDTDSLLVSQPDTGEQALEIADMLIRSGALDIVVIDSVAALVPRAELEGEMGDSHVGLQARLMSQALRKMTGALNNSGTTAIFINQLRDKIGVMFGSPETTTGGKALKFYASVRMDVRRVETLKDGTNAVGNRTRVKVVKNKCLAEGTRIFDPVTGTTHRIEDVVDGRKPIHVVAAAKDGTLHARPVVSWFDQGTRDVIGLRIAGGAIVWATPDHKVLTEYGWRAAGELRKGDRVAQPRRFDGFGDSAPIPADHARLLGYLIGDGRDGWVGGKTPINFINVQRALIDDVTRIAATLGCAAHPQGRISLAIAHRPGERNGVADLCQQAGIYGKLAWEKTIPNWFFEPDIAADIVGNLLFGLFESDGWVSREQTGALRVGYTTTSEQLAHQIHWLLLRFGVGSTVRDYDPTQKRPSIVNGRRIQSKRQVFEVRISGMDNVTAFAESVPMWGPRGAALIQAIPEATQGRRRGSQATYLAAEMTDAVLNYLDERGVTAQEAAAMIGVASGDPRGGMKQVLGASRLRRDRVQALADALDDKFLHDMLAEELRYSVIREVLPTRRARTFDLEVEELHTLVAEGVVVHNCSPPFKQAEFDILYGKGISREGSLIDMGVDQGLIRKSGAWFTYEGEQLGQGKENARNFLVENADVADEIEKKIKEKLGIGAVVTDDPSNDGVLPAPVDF
The assay is described as follows: Fluorescence Cell-Free Homogeneous Dose Retest to Identify Inhibitors of RecA-Intein Splicing Activity. [Related pubchem assays (depositor defined):AID2097, AID2223, AID489010, AID492950].

The target of assay [3] is T3, Replicative DNA helicase DnaB (Mycobacterium tuberculosis, UniProt P9WMR3).
T3 sequence (P9WMR3 whole entry): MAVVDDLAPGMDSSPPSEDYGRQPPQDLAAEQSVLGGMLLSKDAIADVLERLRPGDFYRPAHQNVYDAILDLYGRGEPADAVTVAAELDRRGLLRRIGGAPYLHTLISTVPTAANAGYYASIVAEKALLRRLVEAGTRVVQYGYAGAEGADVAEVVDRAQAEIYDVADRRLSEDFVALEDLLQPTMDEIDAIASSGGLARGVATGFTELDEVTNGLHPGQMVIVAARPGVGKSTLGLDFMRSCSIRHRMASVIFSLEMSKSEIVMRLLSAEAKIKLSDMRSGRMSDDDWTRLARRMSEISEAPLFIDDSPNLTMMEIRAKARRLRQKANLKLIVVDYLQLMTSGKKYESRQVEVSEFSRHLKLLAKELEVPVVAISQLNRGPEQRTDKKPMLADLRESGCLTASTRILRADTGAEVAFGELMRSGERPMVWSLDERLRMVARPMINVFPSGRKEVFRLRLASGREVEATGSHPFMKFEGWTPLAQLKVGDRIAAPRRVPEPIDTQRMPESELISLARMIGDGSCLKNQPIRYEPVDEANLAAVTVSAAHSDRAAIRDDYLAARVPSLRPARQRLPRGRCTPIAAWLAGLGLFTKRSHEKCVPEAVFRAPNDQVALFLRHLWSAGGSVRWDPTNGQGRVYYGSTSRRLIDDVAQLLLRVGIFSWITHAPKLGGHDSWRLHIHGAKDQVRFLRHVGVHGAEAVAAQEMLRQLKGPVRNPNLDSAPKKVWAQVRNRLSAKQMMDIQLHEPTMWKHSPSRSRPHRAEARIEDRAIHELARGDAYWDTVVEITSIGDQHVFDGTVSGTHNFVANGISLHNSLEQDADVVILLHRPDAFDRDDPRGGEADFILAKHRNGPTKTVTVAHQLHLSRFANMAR
Briefly: DnaB intein splicing inhibitors, dose response, biochemical, cell-free fluorescence (AID 449749).

Assay [4] in a line: HEp-2 cell cytotoxicity, dose response, cytotoxicity control for RSV inhibitor project, HTS (AID 2410). To be noted: human respiratory syncytial virus.

Molecules are shown by their SMILES. Calls of active or inactive are those of the source. A value given as a limit tells only on which side of the number the result lay.

For `CC(=O)c1cc(F)c(N2CCN(C(=O)C(C)(C)C)CC2)cc1C`, the EC50 in assay [1] is > 53 µM (inactive). Besides, the IC50 in assay [2] is > 47.1 µM (inactive).
On to `CS/C(=C\[N+](=O)[O-])Nc1ccc(OC(F)(F)F)cc1`, for which the EC50 at Protein RecA is 7.21 µM (active). The AC50 in assay [3] was 14.6 µM (active).
Regarding `CCn1c(SCC(=O)N2CCN(c3cccc(Cl)c3)CC2)nc2ccccc2c1=O`, the CC50 in assay [4] was 47.5 µM (active).
Take `COCCN1CCC(CO)C1` (stereo not drawn): in assay [1], the EC50 was > 53 µM (inactive). Also, the IC50 in assay [2] was > 47.1 µM (inactive).
For the molecule `COc1ccccc1NS(=O)(=O)c1cc(C(=O)N2CCCC2)ccc1F`, the EC50 in assay [1] was > 53 µM (inactive). For the same molecule, in assay [2], the IC50 was > 47.1 µM (inactive).
On to `N#C/C(=C\c1cccc(O)c1)c1nc2ccccc2o1`, for which the EC50 at Protein RecA is 9.27 µM (active). In assay [3], the AC50 is 53.1 µM (active).
For `CC(C)Cc1ccc(-c2cc(O)[nH]n2)cc1` the same measures were 0.664 µM (active) and 1.79 µM (active).
The like results for `CCOc1ccc(C2C(C#N)=C(N)Oc3[nH]nc(C)c32)cc1OC(=O)C1CC1` (stereo not drawn) were, in that order, 9.82 µM (active) and 17.7 µM (active).
In the case of `Cc1onc(-c2ccccc2)c1CNC(=O)CN1C(=O)c2ccccc2C1=O`, the EC50 in assay [1] is > 53 µM (inactive). The IC50 in assay [2] was > 47.1 µM (inactive).
On to `CC1=C(C#N)C(=O)NC(C)(C)C1`, for which the EC50 in assay [1] was > 53 µM (inactive). Moreover, in assay [2], the IC50 is > 47.1 µM (inactive).
For `O=C(CCN1CCCC1=O)NC1CCCc2c1cnn2-c1ccccc1F` (stereo not drawn) the same measures were > 53 µM (inactive) and > 47.1 µM (inactive).
Turning to `Nc1nonc1-n1nnc(C(=O)N/N=C/c2ccccc2)c1CSc1ccc(Cl)cc1`, in assay [1], the EC50 was > 53 µM (inactive).
As for `Cc1c(C(=O)Nc2cccc([N+](=O)[O-])c2)sc2ncn(CC(=O)N3CCOCC3)c(=O)c12`, the EC50 in assay [1] is > 53 µM (inactive). In assay [2], the IC50 is > 47.1 µM (inactive).
For the molecule `COc1ccc(-c2csc(NC(=O)CS(=O)(=O)c3ccccc3)n2)cc1`, in assay [4], the CC50 was 20.4 µM (active).
On to `Cc1cc(O)c(C(C)C)cc1/N=C\c1ccccc1O`, for which, on Protein RecA, the EC50 was 8.89 µM (active). In assay [3], the AC50 is 4.29 µM (active).
As for `CCC(=O)Nc1cccc(-c2csc(-c3ccccc3)n2)c1`, in assay [4], the CC50 is 26.4 µM (active).
`COc1ccc(N(CC(=O)N/N=C/c2ccc3c(c2)OCO3)S(=O)(=O)c2ccc(NC(C)=O)cc2)cc1`: the EC50 in assay [1] was > 53 µM (inactive). Besides, the IC50 in assay [2] was > 47.1 µM (inactive).
The like results for `Cc1cc(C)cc(NC(=O)c2ccc(N3C(=O)C4CCCCC4C3=O)cc2)c1` (stereo not drawn) were, in that order, > 53 µM (inactive) and > 47.1 µM (inactive).
In the case of `CN(CCc1cnn(C)c1)C(=O)C1CCC(=O)N(CC2CCCCC2)C1` (stereo not drawn), the EC50 on Protein RecA was > 380 µM (inactive). Further, the AC50 in assay [3] is > 380 µM (inactive).
Regarding `Cc1cc(=O)n(-c2ccc(C(=O)O)cc2)[nH]1`, the EC50 at Protein RecA was 1.92 µM (active). In addition, in assay [3], the AC50 is 1.9 µM (active).
With `CCCC(=O)Nc1ccc2c(c1)Cc1ccccc1-2`, in assay [4], the CC50 was > 50 µM (active).
`Nc1ccccc1SC1CC(=O)N(c2ccc3c(c2)OCO3)C1=O` (stereo not drawn): the EC50 in assay [1] was > 53 µM (inactive). Further, the IC50 in assay [2] was > 47.1 µM (inactive).
For the molecule `C/C(=N\NC1=NC(=O)C(CC(=O)Nc2ccc(C)c(Cl)c2)S1)C(C)(C)C` (stereo not drawn), the CC50 in assay [4] was 13.8 µM (active).
With `CCN1N=C(c2cc(Cl)sc2Cl)CSC1=O`, in assay [4], the CC50 is > 50 µM (active).
With `CSc1ccccc1C(=O)N1CCN(S(=O)(=O)c2sc(C(=O)O)c(C)c2C(=O)O)CC1`, the EC50 in assay [1] was > 53 µM (inactive). In assay [2], the IC50 was > 47.1 µM (inactive).
The like results for `Cc1ccc2c(cnn2C(=O)CCC(=O)N2CCCCC2)c1` were, in that order, > 53 µM (inactive) and > 47.1 µM (inactive).
On to `Cc1cc(/C=C(/C#N)c2nc3ccccc3[nH]2)c(C)n1-c1cccc([N+](=O)[O-])c1`, for which the CC50 in assay [4] was 22.6 µM (active).
Turning to `O=C1C(Cl)=C(NCC2CCCO2)C(=O)N1c1ccccc1` (stereo not drawn), on Protein RecA, the EC50 was 6.58 µM (active). In addition, the AC50 in assay [3] was 18.8 µM (active).
Regarding `Cc1occc1C(=O)N/N=C/C(Br)=C/c1ccccc1`, the CC50 in assay [4] is 32 µM (active).
With `COC(=O)C(C)N(C(=O)c1cccc2ccccc12)c1c(C)cccc1C` (stereo not drawn), the CC50 in assay [4] is 19.9 µM (active).
On to `Cc1cc2c3c(c1)C(C)CC(C)(C)N3C(=O)C2=C(C#N)C#N` (stereo not drawn), for which the EC50 on Protein RecA was 2.22 µM (active). Besides, in assay [3], the AC50 was 23.8 µM (active).
In the case of `CCOc1cc2[nH]c(=O)n(Cc3ccccc3)c(=O)c2cc1OCC`, in assay [1], the EC50 is > 53 µM (inactive). In assay [2], the IC50 was > 47.1 µM (inactive).
Take `Cc1c(C(c2ccc(N(C)C)cc2)c2c(C)n(C)n(-c3ccccc3)c2=O)c(=O)n(-c2ccccc2)n1C`: the EC50 in assay [1] was > 53 µM (inactive). In assay [2], the IC50 is > 47.1 µM (inactive).
For `CC12CC3CC(C)(C1)CC(C(=O)NNC(=O)c1ccncc1)(C3)C2` the same measures were > 53 µM (inactive) and > 47.1 µM (inactive).
With `O=C1C([O-])=C([n+]2ccccc2)C(=O)c2ccccc21`, the EC50 at Protein RecA was 3.52 µM (active). The AC50 in assay [3] is 2.79 µM (active).
`CCn1cc(C(=O)NCCCN(CC(C)C)CC(C)C)c(=O)c2cc(S(=O)(=O)N(C)C3CCCCC3)ccc21`: the EC50 in assay [1] was 7.06 µM (active).
Take `O=C(CCl)N(c1ccccc1)c1ccccc1`: the EC50 on Protein RecA is 0.484 µM (active). Moreover, the AC50 in assay [3] is 17.1 µM (active).
With `CC(C)(CSc1ncccn1)NS(=O)(=O)c1ccccc1`, the EC50 in assay [1] is > 53 µM (inactive). In addition, the IC50 in assay [2] was > 47.1 µM (inactive).
Take `O=C(COc1cccc(Cl)c1)Nc1ccc(N2CCOCC2)cc1`: the EC50 in assay [1] was > 53 µM (inactive). For the same molecule, the IC50 in assay [2] was > 47.1 µM (inactive).
With `CSc1ccccc1NC(=O)COC(=O)c1c[nH]c(=O)[nH]c1=O`, the EC50 in assay [1] is > 53 µM (inactive).

As a reminder, the AC50 is the midpoint of the concentration-response curve, whichever way the signal moves. Broadly, the CC50 is the concentration giving 50% cytotoxicity.
